The values below come from BindingDB's records for doi:10.1016/j.bmc.2019.07.003 (Tokyo Medical and Dental University, 2019).

As usually defined, the EC50 is the midpoint of the concentration-response curve.

The nature of the assay: Transactivation of VDR in human Macrophage-like cell assessed as cell differentiation measured after 4 days by NBT dye-based assay.

For `C[C@H](CCC(=O)O)[C@H]1CC[C@H]2[C@@H]3CC[C@@H]4C[C@H](OS(C)(=O)=O)CC[C@]4(C)[C@H]3CC[C@]12C`, the EC50 was 1200 nM.
